Legend:
CFTR = target: T1, CFTR (Homo sapiens, UniProt P13569); experiment: Short-circuit current (Isc) analysis in IL-13-treated HBE cells, forskolin / CFTRinh-172 response; assay type: cell-based; details: 25 μM, 30 min pre-treatment
T1 construct: endogenous in cells; host or cells: IL-13-treated primary HBE cell cultures (HBE = non-CF donors)
Description: (§1) Further experiments were done with PDSinh-A01 because of its greater inhibition potency for Cl^−/HCO3^− exchange than PDSinh-C01. To investigate PDSinh-A01 specificity, the major ion transport pathways in HBE cells were studied by short-circuit current (Isc) analysis. Cells were treated with IL-13 to increase Ca^2+-activated Cl^− conductance (CaCC) activity. For Isc measurements, cells were sequentially treated with amiloride to inhibit the epithelial sodium channel (ENaC), forskolin to activate the cystic fibrosis transmembrane conductance regulator (CFTR), CFTRinh-172 to inhibit CFTR, and ATP to activate CaCC. In the absence of PDSinh-A01, ion channel modulators produced the anticipated changes in Isc (FIG. 4A).
(§2) IL-13-treated HBE cells were cultured on Snapwell clear permeable supports (12 mm diameter, 0.4 μm polyester membrane, Costar, Corning, Corning, N.Y.). Short-circuit current was measured using symmetrical HCO3^−-buffered solutions (in mM: 120 NaCl, 5 KCl, 1 MgCl2, 1 CaCl2, 5 Hepes, 25 NaHCO3; pH 7.4) as described, with ion transport modulators added to both apical and basolateral bathing solutions. Cells were equilibrated with 95% O2/5% CO2 and maintained at 37° C. during data acquisition. Statistical analysis was by Student's t-test.

CaCC = experiment: Short-circuit current (Isc) analysis in IL-13-treated HBE cells, ATP response; assay type: cell-based, human; details: 25 μM, 30 min pre-treatment
Description: as §1, §2

[1] = Pharmacokinetics in mice, LC/MS of plasma and urine; assay type: in vivo; details: 10 mg/kg bolus ip
Description: (§3) Pharmacokinetics measurements were done to guide studies of diuretic efficacy. Animal experiments were approved by UCSF Institutional Animal Care and Use Committee. Female CD1 mice (8-10 weeks) were injected with 10 mg/kg PDSinh-C01 (in saline containing 5% DMSO and 10% Kolliphor HS) ip and blood was collected by orbital puncture at 15, 30, 60, 150 and 240 min, and centrifuged at 5000 rpm for 15 min to separate plasma. Urine was collected in metabolic cages. An LC/MS method was developed to measure PDSinh-C01 concentrations in mouse blood and urine. Plasma and urine samples (60 μL) were mixed with 300-μL acetonitrile and centrifuged at 13000 rpm for 20 min, and 90 μL of the supernatant was taken for liquid chromatography/mass spectrometry (LC/MS; Waters 2695 and Micromass ZQ). […] Sodium and potassium concentrations in 3-h collected urine samples were measured by flame photometry (PFP7 Clinical Flame Photometer, Bibby Scientific Ltd, Stone. Staffs, UK). […] Blood gas was analyzed by iSTAT1 with CG4+ cartridges (Abbott Laboratories, Abbott Park, IL, USA). Urine pH was measured on freshly collected urine samples using an AB 15 pH Meter (Fisher Scientific, Pittsburgh, Pa., USA). Experiments with two groups were analyzed with Student's t-test, and experiments with 3 or more groups were analyzed using one-way analysis of variance and post-hoc Newman-Keuls multiple comparisons test. […]

mice (CD-1 and C57Bl/6) = experiment: Acute furosemide diuresis model in mice; assay type: in vivo
Description: as §3

[2] = tested on: chronically furosemide-treated mice; experiment: Chronic furosemide treatment model in mice; assay type: in vivo; details: 10 mg/kg after 8 days furosemide 20 mg/kg twice a day, 3 h urine
Description: Because chronic loop diuretic treatment upregulates renal pendrin expression, which might potentiate the diuretic efficacy of pendrin inhibition, the action of PDSinh-C01 in a chronic furosemide treatment model.
In chronic studies, mice were injected with 20 mg/kg furosemide (ip) twice a day for 8 days and then administered PDSinh-C01 (10 mg/kg) or vehicle at the time of the final furosemide dose. Urine was collected for 3 h as described above.
After 8 days of furosemide treatment, PDSinh-C01 further potentiated the furosemide effect.

T1 sequence (P13569 whole entry): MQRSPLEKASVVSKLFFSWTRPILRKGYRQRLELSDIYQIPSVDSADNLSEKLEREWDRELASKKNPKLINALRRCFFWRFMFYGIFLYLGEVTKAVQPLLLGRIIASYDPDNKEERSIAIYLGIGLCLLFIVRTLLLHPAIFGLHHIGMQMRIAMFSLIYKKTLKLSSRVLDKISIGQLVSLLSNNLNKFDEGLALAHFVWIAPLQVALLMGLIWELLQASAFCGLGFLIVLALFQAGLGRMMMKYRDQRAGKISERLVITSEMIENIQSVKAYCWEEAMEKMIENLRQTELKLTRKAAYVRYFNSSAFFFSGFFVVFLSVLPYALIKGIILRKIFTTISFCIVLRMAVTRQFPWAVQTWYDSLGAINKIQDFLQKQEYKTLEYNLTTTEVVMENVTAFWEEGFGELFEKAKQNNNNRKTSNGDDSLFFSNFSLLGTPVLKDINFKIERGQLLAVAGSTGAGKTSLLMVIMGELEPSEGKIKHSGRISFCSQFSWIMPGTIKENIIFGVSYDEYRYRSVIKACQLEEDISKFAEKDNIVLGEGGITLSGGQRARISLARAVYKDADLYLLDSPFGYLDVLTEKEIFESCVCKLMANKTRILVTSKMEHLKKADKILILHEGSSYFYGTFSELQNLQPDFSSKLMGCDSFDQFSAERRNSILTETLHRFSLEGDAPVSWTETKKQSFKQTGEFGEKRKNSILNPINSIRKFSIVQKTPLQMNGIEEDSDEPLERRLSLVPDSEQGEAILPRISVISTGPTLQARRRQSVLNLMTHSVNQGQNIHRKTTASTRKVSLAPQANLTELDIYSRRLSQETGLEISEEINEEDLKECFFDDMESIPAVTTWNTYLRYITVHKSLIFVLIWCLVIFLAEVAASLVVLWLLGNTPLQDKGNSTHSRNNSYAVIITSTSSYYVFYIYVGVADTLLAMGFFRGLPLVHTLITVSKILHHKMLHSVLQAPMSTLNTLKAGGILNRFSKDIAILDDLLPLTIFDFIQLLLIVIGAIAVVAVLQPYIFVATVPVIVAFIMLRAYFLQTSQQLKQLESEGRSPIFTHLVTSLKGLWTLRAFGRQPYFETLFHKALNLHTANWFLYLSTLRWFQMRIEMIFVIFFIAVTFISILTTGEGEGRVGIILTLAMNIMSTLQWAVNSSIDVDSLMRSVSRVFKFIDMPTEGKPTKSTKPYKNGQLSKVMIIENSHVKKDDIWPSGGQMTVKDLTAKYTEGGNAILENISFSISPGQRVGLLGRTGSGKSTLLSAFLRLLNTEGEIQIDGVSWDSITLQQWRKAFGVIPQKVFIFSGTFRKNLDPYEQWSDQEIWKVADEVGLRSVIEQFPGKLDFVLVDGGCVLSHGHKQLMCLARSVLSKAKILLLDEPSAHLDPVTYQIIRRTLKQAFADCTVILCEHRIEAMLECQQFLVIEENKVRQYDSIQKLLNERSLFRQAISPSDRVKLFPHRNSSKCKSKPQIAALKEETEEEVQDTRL

Row | Structure (SMILES) | effect on CFTR activity (Isc response) (CFTR) | effect on CaCC activity (Isc response) (CaCC) | concentration in plasma [1] | concentration in urine [1] | increase in urine volume (mice (CD-1 and C57Bl/6); 10 mg/kg ip with furosemide 5-50 mg/kg, 3 h urine) | 3-h urinary K+ excretion (mice (CD-1 and C57Bl/6); with furosemide) | increase in urine volume [2]
1 | Cn1nc(COc2cccc(F)c2)c2c1CCN(C(=O)Nc1ccc(Cl)cc1)C2 [PDSinh-A01] | did not affect the activity | did not affect the activity |  |  |  |  | 
2 | Cc1n[nH]c(-c2cc(S(=O)(=O)NC3CCCc4ccccc43)c(C)s2)c1C (stereo not shown) [PDSinh-C01] |  |  | predicted therapeutic concentrations for several hours | predicted therapeutic concentrations for several hours | ~30% | no significant effect | ~60%
